Converted amounts (≈) assume the structure as drawn.
How the values were obtained:
Aspergillus fumigatus = experiment: Antifungal activity against Aspergillus fumigatus ATCC 1022 assessed as growth inhibition after 72 hrs at 28 degC by serial dilution method; assay type: functional; settings: for MIC: Aspergillus fumigatus, ATCC 1022, 72 h
Pseudomonas aeruginosa = experiment: Antibacterial activity against Pseudomonas aeruginosa ATCC 27853 assessed as growth inhibition after 24 hrs at 37 degC by iodonitrotetrazolium chloride staining based microdilution broth assay; assay type: functional; settings: ATCC 27853, 24 h
Bacillus cereus = experiment: Antibacterial activity against clinical isolates of Bacillus cereus assessed as growth inhibition after 24 hrs at 37 degC by iodonitrotetrazolium chloride staining based microdilution broth assay; assay type: functional
[1] = molecular target: Human immunodeficiency virus type 1 reverse transcriptase (Human immunodeficiency virus 1) (UniProt Q72547); experiment: Inhibition of HIV1 reverse transcriptase assessed as residual enzyme activity by measuring reduction in [3H]dTTP incorporation into poly(rA)-oligo(dT) at 4 uM incubated for 15 mins by scintillation counting method relative to control
Aspergillus ochraceus = experiment: Antifungal activity against Aspergillus ochraceus ATCC 12066 assessed as growth inhibition after 72 hrs at 28 degC by serial dilution method; assay type: functional; settings: for MIC: Aspergillus ochraceus, ATCC 12066, 72 h
Enterobacter cloacae = experiment: Antibacterial activity against human isolate of Enterobacter cloacae assessed as growth inhibition after 24 hrs at 37 degC by iodonitrotetrazolium chloride staining based microdilution broth assay; assay type: functional
Aspergillus niger = experiment: Antifungal activity against Aspergillus niger ATCC 6275 assessed as growth inhibition after 72 hrs at 28 degC by serial dilution method; assay type: functional; settings: for MIC: Aspergillus niger, ATCC 6275, 72 h
Micrococcus flavus = experiment: Antibacterial activity against Micrococcus flavus ATCC 10240 assessed as growth inhibition after 24 hrs at 37 degC by iodonitrotetrazolium chloride staining based microdilution broth assay; assay type: functional; settings: ATCC 10240, 24 h
Candida albicans = experiment: Antifungal activity against Candida albicans ATCC 10231 assessed as growth inhibition after 72 hrs at 28 degC by serial dilution method; assay type: functional; settings: for MIC: Candida albicans, ATCC 10231, 72 h
Listeria monocytogenes = experiment: Antibacterial activity against Listeria monocytogenes NCTC 7973 assessed as growth inhibition after 24 hrs at 37 degC by iodonitrotetrazolium chloride staining based microdilution broth assay; assay type: functional; settings: NCTC 7973, 24 h
Salmonella typhimurium = experiment: Antibacterial activity against Salmonella typhimurium ATCC 13311 assessed as growth inhibition after 24 hrs at 37 degC by iodonitrotetrazolium chloride staining based microdilution broth assay; assay type: functional, Salmonella enterica subsp. enterica serovar Typhimurium; settings: Salmonella enterica, ATCC 13311, 24 h
Penicillium ochrochloron = experiment: Antifungal activity against Penicillium ochrochloron ATCC 9112 assessed as growth inhibition after 72 hrs at 28 degC by serial dilution method; assay type: functional; settings: for MIC: Penicillium ochrochloron, ATCC 9112, 72 h
Staphylococcus aureus = experiment: Antibacterial activity against Staphylococcus aureus ATCC 6538 assessed as growth inhibition after 24 hrs at 37 degC by iodonitrotetrazolium chloride staining based microdilution broth assay; assay type: functional; settings: ATCC 6538, 24 h
Escherichia coli = experiment: Antibacterial activity against Escherichia coli ATCC 35210 assessed as growth inhibition after 24 hrs at 37 degC by iodonitrotetrazolium chloride staining based microdilution broth assay; assay type: functional; settings: ATCC 35210, 24 h
Aspergillus versicolor = experiment: Antifungal activity against Aspergillus versicolor ATCC 11730 assessed as growth inhibition after 72 hrs at 28 degC by serial dilution method; assay type: functional; settings: for MIC: Aspergillus versicolor, ATCC 11730, 72 h
Talaromyces funiculosus = experiment: Antifungal activity against Penicillium funiculosum ATCC 36839 assessed as growth inhibition after 72 hrs at 28 degC by serial dilution method; assay type: functional; settings: for MIC: Talaromyces funiculosus, ATCC 36839, 72 h
Trichoderma viride = experiment: Antifungal activity against Trichoderma viride IAM 5061 assessed as growth inhibition after 72 hrs at 28 degC by serial dilution method; assay type: functional; settings: for MIC: Trichoderma viride, IAM 5061, 72 h

MIC (Aspergillus fumigatus) | MIC (Pseudomonas aeruginosa) | MIC (Bacillus cereus) | Activity [1] | MIC (Aspergillus ochraceus) | MIC (Enterobacter cloacae) | MIC (Aspergillus niger) | MIC (Micrococcus flavus) | MIC (Candida albicans) | MIC (Listeria monocytogenes) | Structure (SMILES) | MFC99.5 (Aspergillus fumigatus) | MBC (Pseudomonas aeruginosa) | MBC (Bacillus cereus) | MFC99.5 (Aspergillus ochraceus) | MBC (Enterobacter cloacae) | MFC99.5 (Aspergillus niger) | MBC (Micrococcus flavus) | MFC99.5 (Candida albicans) | MBC (Listeria monocytogenes) | MBC (Salmonella typhimurium) | further results
11.3 µM (≈ 4.99 µg/mL) | 30.6 µM (≈ 13.5 µg/mL) | 16.2 µM (≈ 7.18 µg/mL) | 99.3% | 1.4 µM (≈ 0.618 µg/mL) | 30.6 µM (≈ 13.5 µg/mL) | 3.5 µM (≈ 1.55 µg/mL) | 61.2 µM (≈ 27 µg/mL) | 11.3 µM (≈ 4.99 µg/mL) | 61.2 µM (≈ 27 µg/mL) | O=C1CSC(c2ccc([N+](=O)[O-])cc2)N1c1nc(C23CC4CC(CC(C4)C2)C3)cs1 (centres undefined) | 4.52 ×10⁻² umol/ml | 125 µM (≈ 55.2 µg/mL) | 30.6 µM (≈ 13.5 µg/mL) | 0.28 ×10⁻² umol/ml | 62.5 µM (≈ 27.6 µg/mL) | 0.56 ×10⁻² umol/ml | 125 µM (≈ 55.2 µg/mL) | 2.26 ×10⁻² umol/ml | 125 µM (≈ 55.2 µg/mL) | 125 µM (≈ 55.2 µg/mL) | MIC (Salmonella typhimurium): 30.6 µM (≈ 13.5 µg/mL); MFC99.5 (Penicillium ochrochloron): 0.28 ×10⁻² umol/ml; MIC (Penicillium ochrochloron): 1.4 µM (≈ 0.618 µg/mL); MBC (Staphylococcus aureus): 61.2 µM (≈ 27 µg/mL); MIC (Staphylococcus aureus): 30.6 µM (≈ 13.5 µg/mL); MBC (Escherichia coli): 125 µM (≈ 55.2 µg/mL); MIC (Escherichia coli): 85 µM (≈ 37.5 µg/mL); MFC99.5 (Aspergillus versicolor): 1.13 ×10⁻² umol/ml; MIC (Aspergillus versicolor): 5.6 µM (≈ 2.47 µg/mL); MFC99.5 (Talaromyces funiculosus): 0.14 ×10⁻² umol/ml; MIC (Talaromyces funiculosus): 0.7 µM (≈ 0.309 µg/mL); MFC99.5 (Trichoderma viride): 0.28 ×10⁻² umol/ml; MIC (Trichoderma viride): 1.4 µM (≈ 0.618 µg/mL)
0.45 µM (≈ 0.194 µg/mL) | 16.2 µM (≈ 7 µg/mL) | 16.2 µM (≈ 7 µg/mL) | 99% | 0.5 µM (≈ 0.216 µg/mL) | 62.5 µM (≈ 26.9 µg/mL) | 0.45 µM (≈ 0.194 µg/mL) | 30.6 µM (≈ 13.2 µg/mL) | 5.8 µM (≈ 2.5 µg/mL) | 62.5 µM (≈ 26.9 µg/mL) | O=C1CSC(c2ccc(Cl)cc2)N1c1nc(C23CC4CC(CC(C4)C2)C3)cs1 (centres undefined) | 0.07 ×10⁻² umol/ml | 125 µM (≈ 53.9 µg/mL) | 62.5 µM (≈ 26.9 µg/mL) | 0.07 ×10⁻² umol/ml | 125 µM (≈ 53.9 µg/mL) | 0.07 ×10⁻² umol/ml | 62.5 µM (≈ 26.9 µg/mL) | 1.16 ×10⁻² umol/ml | 125 µM (≈ 53.9 µg/mL) | 62.5 µM (≈ 26.9 µg/mL) | MIC (Salmonella typhimurium): 16.2 µM (≈ 7 µg/mL); MFC99.5 (Penicillium ochrochloron): 0.07 ×10⁻² umol/ml; MIC (Penicillium ochrochloron): 0.3 µM (≈ 0.129 µg/mL); MBC (Staphylococcus aureus): 62.5 µM (≈ 26.9 µg/mL); MIC (Staphylococcus aureus): 16.2 µM (≈ 7 µg/mL); MBC (Escherichia coli): 125 µM (≈ 53.9 µg/mL); MIC (Escherichia coli): 62.5 µM (≈ 26.9 µg/mL); MFC99.5 (Aspergillus versicolor): 0.07 ×10⁻² umol/ml; MIC (Aspergillus versicolor): 0.5 µM (≈ 0.216 µg/mL); MFC99.5 (Talaromyces funiculosus): 0.07 ×10⁻² umol/ml; MIC (Talaromyces funiculosus): 0.45 µM (≈ 0.194 µg/mL); MFC99.5 (Trichoderma viride): 0.05 ×10⁻² umol/ml; MIC (Trichoderma viride): 0.3 µM (≈ 0.129 µg/mL)
5.8 µM (≈ 2.5 µg/mL) | 62.5 µM (≈ 26.9 µg/mL) | 30.6 µM (≈ 13.2 µg/mL) | 99.1% | 0.3 µM (≈ 0.129 µg/mL) | 30.6 µM (≈ 13.2 µg/mL) | 9 µM (≈ 3.88 µg/mL) | 45 µM (≈ 19.4 µg/mL) | 11.6 µM (≈ 5 µg/mL) | 16.2 µM (≈ 7 µg/mL) | O=C1CSC(c2ccccc2Cl)N1c1nc(C23CC4CC(CC(C4)C2)C3)cs1 (centres undefined) | 1.16 ×10⁻² umol/ml | 125 µM (≈ 53.9 µg/mL) | 125 µM (≈ 53.9 µg/mL) | 0.07 ×10⁻² umol/ml | 125 µM (≈ 53.9 µg/mL) | 1.16 ×10⁻² umol/ml | 125 µM (≈ 53.9 µg/mL) | 2.32 ×10⁻² umol/ml | 125 µM (≈ 53.9 µg/mL) | 125 µM (≈ 53.9 µg/mL) | MIC (Salmonella typhimurium): 62.5 µM (≈ 26.9 µg/mL); MFC99.5 (Penicillium ochrochloron): 1.16 ×10⁻² umol/ml; MIC (Penicillium ochrochloron): 5.8 µM (≈ 2.5 µg/mL); MBC (Staphylococcus aureus): 125 µM (≈ 53.9 µg/mL); MIC (Staphylococcus aureus): 62.5 µM (≈ 26.9 µg/mL); MBC (Escherichia coli): 125 µM (≈ 53.9 µg/mL); MIC (Escherichia coli): 62.5 µM (≈ 26.9 µg/mL); MFC99.5 (Aspergillus versicolor): 1.16 ×10⁻² umol/ml; MIC (Aspergillus versicolor): 5.8 µM (≈ 2.5 µg/mL); MFC99.5 (Talaromyces funiculosus): 1.16 ×10⁻² umol/ml; MIC (Talaromyces funiculosus): 5.8 µM (≈ 2.5 µg/mL); MFC99.5 (Trichoderma viride): 1.16 ×10⁻² umol/ml; MIC (Trichoderma viride): 5.8 µM (≈ 2.5 µg/mL)

Reference: ChEMBL document CHEMBL3734713, “4-Thiazolidinone derivatives as potent antimicrobial agents: microwave-assisted synthesis, biological evaluation and docking studies” (2015)
